The record followed here is US20260165976A1, “ANTI-EVAPORATIVE LIPID FORMULATIONS” (UNIVERSITY OF HELSINKI, priority 2022, published 2026).

Entries after “also recorded” stand apart in the source; their conditions may differ.

Format in all cases: physicochemical
Data set [1] can be described thus: Evaporation resistance / evaporation reduction of lipid films (modified Langmuir and Schaefer method). To be noted: for evaporation resistance of phospholipid films: FIG. 13C; for evaporation resistance of OAHFA films: individual lipid film on PBS subphase, 35±1° C., FIG. 2. The protocol: (§1) The lipid components and tailored mixtures dissolved in chloroform, or alternatively, the formulations undergoing characterization studies were spread onto the air-buffer interface of a Langmuir trough, either a Mini trough (KSV, Helsinki, Finland) or a Large trough (KSV NIMA, Biolin Scientific, Espoo, Finland), which was filled with PBS buffer. The samples were allowed to equilibrate for 3 min before starting the measurements. The surface pressure was measured using a Wilhelmy plate, the surface potential was measured using a KSV NIMA Surface Potential Sensor (Espoo, Finland) when relevant and Brewster angle microscopy (BAM) images were captured using a KSV NIMA microBAM (Espoo, Finland) instrument. The films were compressed at a constant rate of 5 or 10 mm/min and the subphase temperature was maintained at 35±1° C. The measurements were performed in an acrylic box under an ozone-free atmosphere to prevent undesired oxidation of the lipids. An ozone-free atmosphere was generated by passing dry air through ODS-3P ozone destruct unit (Ozone solutions, Hull, Iowa) and into the enclosure at a rate of 76 l/min.
The adaptive features of the formulations were uncovered through studying the spreading capabilities of the lipid films over compression-expansion cycles using the Langmuir setup. In more detail, the volume employed of each formulation was the volume required to observe a response in the surface pressure isotherm over one compression-expansion cycle. Altogether, the films were subjected to twenty compression-expansion cycles employing a 50 mm/min. compression/expansion rate and the changes in the surface pressure isotherms were monitored as described above. Evaporation resistance was determined by a modified Langmuir and Schaefer method (Langmuir et al, 1943, J Franklin Inst, 235, 119-162). The measurements were conducted by compressing the film to a specific mean molecular area, ranging between 2-40 Å^2/molecule (for individual compounds), or a specified area (for formulations) and placing a tailored desiccant cartridge, with a water-permeable membrane, approximately 2 mm above the aqueous surface. The commercial silica gel containing desiccant cartridges (SP Industries, Warminster, PA) were modified by replacing the membrane with a Millipore Immobilon-P PVDF membrane (450 nm pore size, Bedford, MA). The desiccant cartridge was fixed in position for 5 minutes and the mass of the absorbed water was determined by gravimetric techniques. In order to take into account the water absorbed from the air inside the enclosure, a second background measurement was conducted in parallel inside the enclosed acrylic box. From the measurements, the evaporation resistance was calculated with the equation (1).
The terms used in the equation are as follows: Adesicant=area of the desiccant cartridge; • t=measuring time; (w-w0)=water concentration difference between the aqueous surface and the surface of the desiccant cartridge; m(I)=water amount absorbed in the presence of the lipid film; mPBS(0)=water amount absorbed in the absence of the lipid film; Δmtot=mass of evaporated water during the measurement; ti=time point D=diffusion coefficient; ρ=water density; ATrough=area of the Langmuir Trough.
The evaporation reduction was determined as the total reduction of water absorbed by a desiccant cartridge when a lipid film was covering the subphase versus the situation when the lipid film was absent. Equation (2) was utilized in the calculations.

Data set [2] is described as follows: Surface pressure isotherms and Brewster angle microscopy of films on a Langmuir trough. To be noted: PBS subphase, 35±1° C. On the procedure:
as §1

The nature of data set [3]: Differential scanning calorimetry (DSC) of active components, phospholipids and liposomal formulations. The following applies: heating 10° C./min, triplicate; for Peak Tm1 ± SD / Onset Tm2 ± SD / Peak Tm2 ± SD: in °C (unit assumed). The protocol: Differential scanning calorimetry (DSC 2500 with an RCS90 cooling unit; TA instruments, Newcastle, DE, USA) was utilized to study the thermal properties of the active compounds. Nitrogen (N2) was utilized as the purge gas at rate of 50 mL/min during the measurements. […] of the active components were placed into aluminum pans with manually made pin holes (DSC Consumables incorporated, Austin, Minnesota, USA). The samples were subsequently sealed and analyzed with DSC utilizing the TRIOS® software (TA instruments, Newcastle, DE, USA). All results were compared to an empty reference pan containing a pin hole. Each measurement was performed in triplicate. Briefly, the samples were cooled to 0° C., then heated from 0° C. to 75° C. at a rate of 10° C./min. Then, the samples were kept isothermally at 75° C. for 10 min, after which they were equilibrated to −50° C. at an uncontrolled rate. Ultimately, the samples were heated again to 75° C. at a rate of 10° C./min.
The phospholipid bilayer phase transition behavior was studied to assess whether successful integration of the active components into the phospholipid bilayer had been achieved or not. The studies were performed in a similar fashion as described for active components above. In this case, 20 μL of a formulation was pipetted into the aluminum pans (DSC Consumables incorporated, Austin, Minnesota, USA), which were subsequently sealed and analyzed with DSC employing the TRIOS® software (TA instruments, Newcastle, DE, USA). The samples were cooled and equilibrated to 5° C., then heated from 5° C. to 70-85° C. at a rate of 10° C./min and the results were compared to the reference pan containing the liquid used to hydrate the lipid film. All prepared liposomal formulations which viscosity were low enough to be pipetted, were analyzed by DSC and compared to the thermograms obtained from liposomes containing only the PC-component and the thermograms obtained for the active components.
(In general: DSC measures the heat that a sample takes up or gives off during a temperature scan.)

`CCCCCCCCCCCCCCCCCC(=O)OC[C@H](COP(=O)([O-])OCC(O)CO)OC(=O)CCCCCCCCCCCCCCCCC.[Na+]` (mixture of isomers) [18:0 PG, 1,2-distearoyl-sn-glycero-3-phospho-rac-(1-glycerol) sodium salt]: in data set [1], the “evaporation resistance of phospholipid films” value is given as “highest evaporation resistance”. Besides, in data set [2] (sodium salt), the “phase behaviour of the film (surface pressure isotherm, BAM)” value (shortened to “phase behaviour of the film”) is “suitable properties; also recorded: phase transition occurring at a low surface pressure”.

Take `CCCCCCCCCCCCCCCCCCO` [1-Octadecanol, octadecanol]: the “evaporation resistance of long chain fatty alcohols” value in data set [1] (FIG. 5) is on record as “most promising species”. Further, in data set [3], the “Onset Tm1 ± SD” value is reported as 56.49 ± 0.49 and the “Peak Tm1 ± SD” value was 57.61 ± 0.22.

`CCCCCCCC/C=C\CCCCCCCC(=O)OCCCCCCCCCCCC(=O)O` [12:0/18:1-OAHFA, 12-(oleoyloxy)dodecanoic acid]: the “evaporation resistance of OAHFA films” value in data set [1] was “significantly weaker evaporation-resistant properties”.

As to `CCCCCCCC/C=C\CCCCCCCC(=O)OCCCCCCCCCCCCCCC(=O)O` [15:0/18:1-OAHFA, 15-(oleoyloxy)pentadecanoic acid], the “evaporation resistance of OAHFA films” value in data set [1] was “significantly weaker evaporation-resistant properties”.

Turning to `CCCCCCCCCCCCCCCC(=O)OC[C@H](COP(=O)(O)OCCN)OC(=O)CCCCCCCCCCCCCCC` [16:0 PE, 1,2-dipalmitoyl-sn-glycero-3-phosphoethanolamine], the “phase behaviour of the film” value in data set [2] is on record as “suitable properties”.

Turning to `CCCCCCCCCCCCCCCCCC(=O)OC[C@H](COP(=O)(O)OCCN)OC(=O)CCCCCCCCCCCCCCCCC` [18:0 PE, 1,2-distearoyl-sn-glycero-3-phosphoethanolamine], in data set [1], the “evaporation resistance of phospholipid films” value is given as “highest evaporation resistance”. Besides, the “phase behaviour of the film” value in data set [2] is given as “suitable properties”.

For `CCCCCCCCCCCCCCCCCC(=O)OC[C@H](COP(=O)(O)OC[C@H](N)C(=O)[O-])OC(=O)CCCCCCCCCCCCCCCCC.[Na+]` [18:0 PS, 1,2-distearoyl-sn-glycero-3-phospho-L-serine (sodium salt)], the “phase behaviour of the film” value in data set [2] is given as “suitable properties”.

`CCCCCCCC/C=C\CCCCCCCC(=O)OCCCCCCCCCCCCCCCCCC(=O)O` [18:0/18:1-OAHFA, 18-(oleoyloxy)octadecanoic acid]: the “evaporation resistance of OAHFA films” value in data set [1] is “displays evaporation resistance; also recorded: highest evaporation resistance”. In addition, in data set [2], the “phase behaviour of the film” value is listed as “does undergo a liquid to solid phase transition” and the “surface activity / spreading ability” value is recorded as “surface active lipids”. For the same compound, in data set [3], the “Onset Tm1 ± SD” value came out at 54.92 ± 0.87 and the “Peak Tm1 ± SD” value is listed as 56.50 ± 0.64.

In the case of `CCCCCCCC/C=C\CCCCCCCC(=O)OCCCCCCCCCCCCCCCCCCCC(=O)O` [20:0/18:1-OAHFA, 20-(oleoyloxy)eicosanoic acid], the “evaporation resistance of OAHFA films” value in data set [1] was “reasonable degree of evaporation resistance”. Further, in data set [3], the “Onset Tm1 ± SD” value is 41.65 ± 1.16, the “Onset Tm2 ± SD” value is given as 56.89 ± 1.42, the “Peak Tm1 ± SD” value is listed as 46.54 ± 0.18 and the “Peak Tm2 ± SD” value came to 59.52 ± 0.38.

For the compound `CCCCCCCC/C=C\CCCCCCCC(=O)OCCCCCCC/C=C\CCCCCCCCCCC(=O)O` [20:1/18:1-OAHFA, (12Z)-20-(oleoyloxy)eicos-12-enoic acid], the “evaporation resistance of OAHFA films” value in data set [1] is on record as “significantly weaker evaporation-resistant properties”. In addition, in data set [2], the “phase behaviour of the film” value is listed as “does not undergo a phase transition” and the “surface activity / spreading ability” value is reported as “surface active lipids”.

`CCCCCCCC/C=C\CCCCCCCC(=O)OCCCCCCCCCCCCCCCCCCCCCC(=O)O` [22:0/18:1-OAHFA, 22-(oleoyloxy)docosanoic acid]: the “evaporation resistance of OAHFA films” value in data set [1] is recorded as “reasonable degree of evaporation resistance”.

As to `CCCCCCCC/C=C\CCCCCCCC(=O)OCCCCCCC/C=C\CCCCCCCCCCCCCCCCCCCC(=O)O` [29:1/18:1-OAHFA, (21Z)-29-(oleoyloxy)nonacos-21-enoic acid], the “evaporation resistance of OAHFA films” value in data set [1] is on record as “reasonable degree of evaporation resistance”.

Turning to `CCCCCCCC/C=C\CCCCCCCC(=O)OCCCCCCCCCCCCCCCCCCCCCC` [BO, behenyl oleate], in data set [3], the “Onset Tm1 ± SD” value was 34.48 ± 0.05 and the “Peak Tm1 ± SD” value worked out at 36.74 ± 0.92.

Regarding `CCCCCCCCCCCCCCCCCCCC(=O)OC[C@H](COP(=O)([O-])OCC[N+](C)(C)C)OC(=O)CCCCCCCCCCCCCCCCCCC` [DAPC, 1,2-diarachidoyl-sn-glycero-3-phosphatidylcholine], in data set [3], the “Onset Tm1 ± SD” value is listed as 63.04 ± 0.21 and the “Peak Tm1 ± SD” value was determined as 64.87 ± 0.05.

Turning to `CCCCCCCCCCCCCC(=O)OC[C@H](COP(=O)([O-])OCC[N+](C)(C)C)OC(=O)CCCCCCCCCCCCC` [DMPC, 1,2-dimyristoyl-sn-glycero-3-phosphocholine], in data set [3], the “Onset Tm1 ± SD” value is 17.37 ± 0.69 and the “Peak Tm1 ± SD” value came to 22.74 ± 1.57.

With `CCCCCCCCCCCCCCCCCC(=O)OC[C@H](COP(=O)([O-])OCC[N+](C)(C)C)OC(=O)CCCCCCCCCCCCCCCCC` [DSPC, 1,2-distearoyl-sn-glycero-3-phosphocholine], in data set [3], the “Onset Tm1 ± SD” value is listed as 50.13 ± 0.29 and the “Peak Tm1 ± SD” value came to 54.67 ± 0.18.

Turning to `CCCCCCCC/C=C\CCCCCCCCOC(=O)CCCCCCCCCCCCCCCCC(=O)O` [R-18:0/18:1-OAHFA, 18-(oleyloxy)-18-oxo-octadecanoic acid], the “evaporation resistance of OAHFA films” value in data set [1] is “reasonable degree of evaporation resistance”. Also, in data set [3], the “Onset Tm1 ± SD” value is 55.00 ± 0.87, the “Onset Tm2 ± SD” value is reported as 63.20 ± 0.28, the “Peak Tm1 ± SD” value came to 57.53 ± 0.95 and the “Peak Tm2 ± SD” value stood at 63.88 ± 0.14.

Consider `CCCCCCCC/C=C\CCCCCCCCOC(=O)CCCCCCCCCCCCCCCCCCC(=O)O` [R-20:0/18:1-OAHFA, 20-(oleyloxy)-20-oxo-eicosanoic acid], for which, in data set [1], the “evaporation resistance of OAHFA films” value is “reasonable degree of evaporation resistance”.
